# Read-outs that look alike come from different tables or passages of the source.
# Assays:
# [1] = system: LPS-induced proinflammatory factor nitric oxide (NO) in immunocompetent BV-2 cells; assay: NO assay: inhibition of LPS-induced NO overproduction in BV-2 cells; type: cell-based; conditions: Mus musculus, read-out: Antineuroinflammatory activity (IC50 inhibiting LPS-induced NO)
# Experimental: BV-2 cells were seeded at a density of 5×10^4 cells per milliliter in 96-well plates. After 24 h incubation, the media was removed and changed to DMEM without FBS and penicillin-streptomycin. LPS (200 ng/mL) and different concentrations of compounds were added. After 24 h treatment, 100 μL of media was transferred to flat black 96-well micro fluor plates, and then, 10 μL of 0.05 mg/mL 2,3-diaminonaphthalene was added and incubated in the dark for 15 min. 5 μL of NaOH (3 M) was subsequently added to each well to quench the reaction. NO inhibition ratio was analyzed by a SYNERGY H1 Microplate Reader (BioTek Instruments, Carlsbad, CA, USA) with excitation at 360 nm and emission at 430 nm. The fluorescence value of the LPS-treated group was set as 100%.
# [2] = system: BV-2 cellular viability; assay: Cell viability / cytotoxicity by crystal violet staining; type: cell-based; conditions: Mus musculus, BV-2, read-out: Cellular toxicity (IC50 inhibiting BV-2 cellular viability)
# Experimental: 100 μL of culture medium were transferred to a black 96-well plate for later use. Following removal of old culture medium, 100 μL of 4% paraformaldehyde was added for fixation. Fixation was performed for 5 minutes. Paraformaldehyde was then removed, and 100 μL of 0.05% crystal violet was added. The resultant mixture was incubated for 15 minutes, after which time crystal violet was removed and the mixture was slowly rinsed with water three times. Next, 150 μL of ethanol was added, and the mixture was incubated for 15 minutes. After incubation, the absorbance was measured at 540 nm using a spectrophotometer. Viability (%)=100× Fluorescence values of the dosing group/Fluorescence values of the blank group.
# Cell viability was determined by crystal violet staining. Briefly, BV-2 cells were treated as indicated in the NO assay. The media was removed, and then 4% paraformaldehyde was added to fix the cells for 5 min. Cells were stained with 100 μL 0.05% crystal violet for 15 min and washed with water 2 times. Next, 150 μL of ethanol was added to each well, and the plate was incubated for 15 min at room temperature. Absorbance at 540 nm was measured using a SYNERGY H1 Microplate Reader.
# [3] = system: LPS-induced IL-1β, TNF-α, IL-6, iNOS, IL-10 mRNA in BV-2 cells; assay: qRT-PCR of proinflammatory and M1/M2 marker mRNAs in LPS-treated BV-2 cells; type: cell-based; conditions: BV-2 cells
# Experimental: Total RNA was extracted from cells or mouse brains using the RNeasy Mini Kit. Isolated RNA was reverse-transcribed into cDNA using an RT2 Easy First Strand cDNA Synthesis Kit following the manufacturer's protocols. PCR amplification was conducted using synthetic primers, SYBR Green, and a TOptical Real-Time qPCR Thermal Cycler (Analytik Jena, Thuringia, Germany). The data were analyzed by the […] method, and Rpl711 or Rpl27 was used as an internal control.
# [4] = system: morphine-dependent mice; assay: Naloxone-precipitated morphine withdrawal jumps; type: in vivo; conditions: 2 μg/kg, 20 μg/kg, 0.2 mg/kg i.p.
# Experimental: Mice were intraperitoneally injected with an escalating dose of morphine three times daily for 3 days (5, 20, and 40 mg/kg) to induce addiction. On the fourth day, mice were given morphine (40 mg/kg) or vehicle (5 mL/kg). […] The withdrawal was precipitated by naloxone. Each mouse was placed into a transparent plastic box immediately, and the number of jumps was recorded for 15 min.
# [5] = system: morphine-treated mice; assay: Morphine-induced behavioral sensitization; type: in vivo; conditions: 0.2 mg/kg i.p., mice
# Experimental: Mice were placed into the test chamber (40×40×40 cm^3) for 60 min to habituate the chamber for three consecutive days. […] Locomotor activity was recorded daily for 60 min after the administration of drugs. Next, all the mice were subjected to a 7-day withdrawal period (days 8-14). Subsequently, mice were given morphine (5 mg/kg, i.p.), and locomotor activity was recorded to determine behavioral sensitization.
# [6] = Pharmacokinetic profiles in brain and plasma after oral administration; type: in vivo, mice; conditions: 10 mg/kg p.o.
# Experimental: Following administration, mice (BALB/c, male, 20-25 g) were sacrificed at 0.5, 1, 2, 3, and 4 h. The blood and brain tissue were collected and extracted with acetonitrile.
# [7] = molecular target: T1, CB1 Receptor (Homo sapiens, UniProt P21554); assay: cAMP measurement, forskolin-induced cAMP accumulation, CB1; type: cell-based
# T1 construct: expressed in transfected cells; host or cells: GloSensor 22-F HEK293 cells
# T1 sequence (P21554 whole entry): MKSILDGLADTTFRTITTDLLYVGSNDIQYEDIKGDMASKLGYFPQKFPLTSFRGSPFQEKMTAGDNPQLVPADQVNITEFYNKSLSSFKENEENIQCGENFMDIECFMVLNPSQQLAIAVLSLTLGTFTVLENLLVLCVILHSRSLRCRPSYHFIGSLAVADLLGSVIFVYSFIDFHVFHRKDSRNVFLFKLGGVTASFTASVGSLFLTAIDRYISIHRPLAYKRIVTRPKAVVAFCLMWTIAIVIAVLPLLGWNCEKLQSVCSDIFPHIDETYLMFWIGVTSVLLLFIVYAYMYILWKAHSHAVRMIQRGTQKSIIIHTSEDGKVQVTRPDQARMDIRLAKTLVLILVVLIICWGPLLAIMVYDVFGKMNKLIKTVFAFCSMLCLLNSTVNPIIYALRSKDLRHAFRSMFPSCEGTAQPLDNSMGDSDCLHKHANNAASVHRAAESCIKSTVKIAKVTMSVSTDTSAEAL
# Experimental: (§1) GloSensor 22-F HEK293 cells were transfected with plasmids encoding different receptors (CB1 and CB2). After 24 h, HEK293 cells were seeded at a density of 5×10^4 cells per well in 96-well plates and incubated for 8 h; then, the medium was removed, and 200 μL of serum-free DMEM medium containing 2% GloSensor cAMP substrate (Promega) was added. After 2 h incubation, the transfected cells were stimulated with different concentrations of ligands together with […]. The luminescence was recorded using a Multimode Plate Reader (En Vision, PerkinElmer).
# [8] = molecular target: T2, CB2 Receptor (Homo sapiens, UniProt P34972); assay: cAMP measurement, forskolin-induced cAMP accumulation, CB2; type: cell-based
# T2 construct: expressed in transfected cells; host or cells: GloSensor 22-F HEK293 cells
# T2 sequence (P34972 whole entry): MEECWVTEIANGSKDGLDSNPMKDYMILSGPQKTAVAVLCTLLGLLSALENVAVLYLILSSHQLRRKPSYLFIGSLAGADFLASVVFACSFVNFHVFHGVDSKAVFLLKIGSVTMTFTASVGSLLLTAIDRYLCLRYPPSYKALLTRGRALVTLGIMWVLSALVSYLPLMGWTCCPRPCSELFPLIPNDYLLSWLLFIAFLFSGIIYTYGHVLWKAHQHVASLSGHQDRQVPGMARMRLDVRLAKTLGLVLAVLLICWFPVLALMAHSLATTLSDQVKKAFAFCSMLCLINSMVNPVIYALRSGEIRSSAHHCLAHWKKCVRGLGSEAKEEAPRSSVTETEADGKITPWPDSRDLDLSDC
# Experimental: as §1
# [9] = Pharmacokinetic profiles in brain and plasma after oral administration; type: in vivo, mice; conditions: male, BALB/c, mouse, 10 mg/kg p.o., read-out: B/P ratio
smiles,measurement,setting,value
"C=C(C)[C@@H]1CCC(C)=C[C@H]1c1c(O)cc(CCCCC)cc1OCC [Compound 2a, (1′ R,2′R)-6-Ethoxy-5′-methyl-4-pentyl-2′-(prop-1-en-2-yl)-1′,2′,3′,4′-tetrahydro-[1,1′-biphenyl]-2-ol]",IC50,"[1]; BV-2, 24 h",167 ± 16.9 µM
same,IC50,[2],176 ± 7.4 µM
"C=C(C)[C@@H]1CCC(C)=C[C@H]1c1c(O)cc(CCCCCC)cc1O [Compound 12e, (1′R,2′R)-4-Hexyl-5′-methyl-2′-(prop-1-en-2-yl)-1′,2′,3′,4′-tetra-hydro-[1,1′-biphenyl]-2,6-diol]",IC50,"[1]; BV-2, 24 h",2.1 ± 0.4 µM
same,IC50,[2],19 ± 0.5 µM
C=C(C)[C@@H]1CCC(C)=C[C@H]1c1c(O)cc(CCCC)cc1O [Compound 12c],IC50,"[1]; BV-2, 24 h",5 ± 3.5 µM
same,IC50,[2],11.1 ± 2.8 µM
"C=CCOc1cc(CCCCC)cc(O)c1[C@@H]1C=C(C)CC[C@H]1C(=C)C [Compound 4a, (1′R,2′R)-6-(Allyloxy)-5′-methyl-4-pentyl-2′-(prop-1-en-2-yl)-1′,2′,3′,4′-tetrahydro-[1,1′-biphenyl]-2-ol]",IC50,"[1]; BV-2, 24 h",59.8 ± 15.6 µM
same,IC50,[2],71.5 ± 9.4 µM
"C=C(C)[C@@H]1CCC(C)=C[C@H]1c1c(O)cc(CCCCCCCC)cc1O [Compound 12g, (1′R,2′R)-5′-Methyl-4-octyl-2′-(prop-1-en-2-yl)-1′,2′,3′,4′-tetra-hydro-[1,1′-biphenyl]-2,6-diol]",IC50,"[1]; BV-2, 24 h",174 ± 33 µM
same,IC50,[2],26.2 ± 5.2 µM
"C#CCOc1cc(CCCCC)cc(OCC#C)c1[C@@H]1C=C(C)CC[C@H]1C(=C)C [Compound 5b, (1R,2R)-5-Methyl-4′-pentyl-2-(prop-1-en-2-yl)-2′,6′-bis(prop-2-yn-1-yloxy)-1,2,3,4-tetrahydro-1,1′-biphenyl]",IC50,"[1]; BV-2, 24 h",> 200 µM
same,IC50,[2],> 200 µM
"C=C(C)[C@@H]1CCC(C)=C[C@H]1c1c(O)cc(CC)cc1O [Compound 12a, (1′R,2′R)-4-Ethyl-5′-methyl-2′-(prop-1-en-2-yl)-1′,2′,3′,4′-tetra-hydro-[1,1′-biphenyl]-2,6-diol]",IC50,"[1]; BV-2, 24 h",2.5 ± 0.3 µM
same,IC50,[2],22.6 ± 1.6 µM
"C=C(C)[C@@H]1CCC(C)=C[C@H]1c1c(OCC)cc(CCCCC)cc1OCC [Compound 2b, (1R,2R)-2′,6′-Diethoxy-5-methyl-4′-pentyl-2-(prop-1-en-2-yl)-1,2,3,4-tetrahydro-1,1′-biphenyl]",IC50,"[1]; BV-2, 24 h",> 200 µM
same,IC50,[2],> 200 µM
"C=C(C)[C@@H]1CCC(C)=C[C@H]1c1c(O)cc(CCC)cc1O [Compound 12b, (1′R,2′R)-5′-Methyl-2′-(prop-1-en-2-yl)-4-propyl-1′,2′,3′,4′-tetra-hydro-[1,1′-biphenyl]-2,6-diol, reference compound]",IC50,"[1]; BV-2, 24 h",5.3 ± 2.9 µM
same,IC50,[2],18.3 ± 4.4 µM
"C=C(C)[C@@H]1CCC(C)=C[C@H]1c1c(OCCC)cc(CCCCC)cc1OCCC [Compound 3b, (1R,2R)-5-Meth-yl-4′-pentyl-2-(prop-1-en-2-yl)-2′,6′-dipropoxy-1,2,3,4-tetrahydro-1,1′-biphenyl]",IC50,"[1]; BV-2, 24 h",> 200 µM
same,IC50,[2],> 200 µM
"C=C(C)[C@@H]1CCC(C)=C[C@H]1c1c(O)cc(CCCCC)cc1O [CBD, (1′R,2′R)-5′-Methyl-4-pentyl-2′-(prop-1-en-2-yl)-1′,2′,3′,4′-tetra-hydro-[1,1′-biphenyl]-2,6-diol, reference compound]",IC50,"[1]; BV-2 cells, LPS 200 ng/mL, 24 h",12.3 ± 3.1 µM
same,IC50,[2],8.5 ± 0.9 µM
same,LPS-induced overexpression of IL-1β mRNA,[3],inhibited IL-1β overexpression only at 10 μM
same,LPS-induced overexpression of IL-6 mRNA,[3],failed to inhibit
same,LPS-induced overexpression of TNF-α mRNA,[3],failed to inhibit
same,LPS-induced IL-6 mRNA expression at 10 μM,[3]; 10 μM,augmented
same,naloxone-precipitated withdrawal jumps,[4],failed to significantly alleviate
same,development of morphine-induced behavioral sensitization (induction period),[5],not obvious
same,AUC0→t,"[6]; brain, mice",66.7 ng·h/g
same,AUC0→∞,"[6]; brain, mice",85.0 ng·h/g
same,MRT,"[6]; brain, mice",42 min
same,Tmax,"[6]; brain, mice",30 min
same,t1/2,"[6]; brain, mice",30 min
same,Kp,"[6]; male, BALB/c, mouse, brain / plasma, oral, read-out: B/P ratios within the first 3 h after administration",< 1
same,Kp at 0.5 h,"[6]; male, BALB/c, mouse, brain / plasma, po, 0.5 h, read-out: B/P ratio",0.93 ± 0.176
same,Kp at 1 h,"[6]; male, BALB/c, mouse, brain / plasma, po, 1 h, read-out: B/P ratio",0.839 ± 0.144
same,CB1 Receptor ΔEmax,"[7]; HEK293 transfected with CB1, forskolin-induced cAMP",13.3 ± 0.1%
same,CB1 receptor activity,[7]; cAMP assay,slight CB1/CB2 receptor activity
same,CB2 Receptor ΔEmax,"[8]; HEK293 transfected with CB2, forskolin-induced cAMP",30.2 ± 0.9%
same,CB2 receptor activity,[8]; cAMP assay,slight CB1/CB2 receptor activity
same,Kp at 0.083 h,[9]; 0.083 h,0.864 ± 0.227
same,Kp at 0.25 h,[9]; 0.25 h,0.358 ± 0.106
"C=C(C)[C@@H]1CCC(C)=C[C@H]1c1c(O)cc(CCCCCCCCCCCC)cc1O [Compound 12h, (1′R,2′R)-4-Dodecyl-5′-methyl-2′-(prop-1-en-2-yl)-1′,2′,3′,4′-tet-rahydro-[1,1′-biphenyl]-2,6-diol]",IC50,"[1]; BV-2, 24 h",> 200 µM
same,IC50,[2],> 200 µM
"C=C(C)[C@@H]1CCC(C)=C[C@H]1c1c(OC)cc(CCCCC)cc1OC [Compound 1b, (1R,2R)-2′,6′-Dimethoxy-5-methyl-4′-pentyl-2-(prop-1-en-2-yl)-1,2,3,4-tetrahydro-1,1′-biphenyl]",IC50,"[1]; BV-2, 24 h",> 200 µM
same,IC50,[2],> 200 µM
"C=CCOc1cc(CCCCC)cc(OCC=C)c1[C@@H]1C=C(C)CC[C@H]1C(=C)C [Compound 4b, (1R,2R)-2′,6′-Bis(allyloxy)-5-methyl-4′-pentyl-2-(prop-1-en-2-yl)-1,2,3,4-tetrahy-dro-1,1′-biphenyl]",IC50,"[1]; BV-2, 24 h",> 200 µM
same,IC50,[2],> 200 µM
"C=C(C)[C@@H]1CCC(C)=C[C@H]1c1c(O)cc(C(C)n2ccnc2)cc1O (stereo partly drawn) [Compound 19c, (1′R,2′R)-4-(1-(1H-Imidazole-1-yl)ethyl)-5′-methyl-2′-(prop-1-en-2-yl)-1′,2′,3′,4′-tetrahydro-[1,1′-biphenyl]-2,6-diol]",IC50,"[1]; BV-2, 24 h",4.4 ± 0.5 µM
same,IC50,[2],32.6 ± 3.2 µM
"C=C(C)[C@@H]1CCC(C)=C[C@H]1c1c(O)cc(CCCCC)cc1OCCC [Compound 3a, (1′R,2′R)-5′-Methyl-4-pentyl-2′-(prop-1-en-2-yl)-6-propoxy-1′,2′,3′,4′-tetrahydro-[1,1′-biphenyl]-2-ol]",IC50,"[1]; BV-2, 24 h",> 200 µM
same,IC50,[2],> 200 µM
"C=C(C)[C@@H]1CCC(C)=C[C@H]1c1c(O)cc(CCCCCCC)cc1O [Compound 12f, (1′R,2′R)-4-Heptyl-5′-methyl-2′-(prop-1-en-2-yl)-1′,2′,3′,4′-tetra-hydro-[1,1′-biphenyl]-2,6-diol]",IC50,"[1]; BV-2, 24 h",42 ± 9.3 µM
same,IC50,[2],14.1 ± 0.7 µM
"C#CCOc1cc(CCCCC)cc(O)c1[C@@H]1C=C(C)CC[C@H]1C(=C)C [Compound 5a, (1′R,2′R)-5′-Methyl-4-pentyl-2′-(prop-1-en-2-yl)-6-(prop-2-yn-1-yloxy)-1′,2′,3′,4′-tetrahydro-[1,1′-biphenyl]-2-ol]",IC50,"[1]; BV-2, 24 h",99.6 ± 16.3 µM
same,IC50,[2],65 ± 7.9 µM

# Source: US20260242320A1, “USE OF CANNABIDIOL DERIVATIVE IN PREPARATION OF MEDICAMENT” (priority 2023, published 2026)
